According to US12416036B2, “High-throughput enzyme assay for screening activity of acyltransferases” (CORNELL UNIVERSITY, priority 2021, dated 2025):
Residue numbers refer to the chain shown, from its start. Entries after “also recorded” stand apart in the source; their conditions may differ. Where two headings read alike, the source gives them in different places. Residues, ends and D or L forms follow the SMILES beside them. *: point of attachment. 5FAM = O=C1OC2(c3ccc(O)cc3Oc3cc(O)ccc32)c2ccc(C(=O)*)cc21

Columns and labels:
[1] = target: T1, ZDHHC7 (Mus musculus, UniProt Q91WU6); experiment: Enzyme kinetics of ZDHHC7 on the FAM-KRas4a peptide by HPLC; assay type: biochemical; design: myc (vector pblueBac4.5-myc3His10) (C); His (vector pblueBac4.5-myc3His10) (C); made in house; host or cells: Sf9 insect cells (baculovirus); details: ZDHHC7, 60 μM palmitoyl-CoA
T1 sequence (Q91WU6 1-308): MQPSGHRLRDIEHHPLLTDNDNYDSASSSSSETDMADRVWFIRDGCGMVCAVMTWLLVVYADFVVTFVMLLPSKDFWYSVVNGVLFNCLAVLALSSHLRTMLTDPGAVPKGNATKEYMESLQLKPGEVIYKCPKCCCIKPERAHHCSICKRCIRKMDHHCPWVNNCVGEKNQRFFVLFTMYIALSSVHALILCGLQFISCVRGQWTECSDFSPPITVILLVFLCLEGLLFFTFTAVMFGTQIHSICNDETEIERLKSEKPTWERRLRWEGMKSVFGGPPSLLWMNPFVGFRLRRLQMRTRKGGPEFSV
Experimental: ZDHHC-catalyzed S-palmitoylation was detected by LC-MS. To facilitate detection by UV, two tryptophan residues were added to the C-terminus of the peptide. In a second peptide, the 5-FAM group was attached to permit detection in the acyl-cLIP assay.
In solutions containing 0.1% DMM, 50 mM MES pH 6.4, 0.5 mM TCEP, 60 μM palmitoyl-CoA, and 0.15 μM DHHC7, FAM-KRas peptide was added to final concentration ranging from 31.25 μM to 2000 μM. After 10 minutes of incubation, the reaction was quenched with 0.1% acetonitrile. After centrifuging at 17 000 g for 10 minutes, the supernatant was loaded to Shimadzu HPLC LC20 Ad with Kinetex 5u EVO C18 100 Å column (100 mm×4.60 mm, 5 μm) for UV detection at 260 nm. Using HPLC-grade water with 0.1% trifluoroacetic acid as Buffer A and HPLC-grade acetonitrile with 0.1% trifluoroacetic acid, at a constant rate of 0.5 mL/min, the linear gradient for elution was 0% Buffer B (0-2 min), 20% Buffer B (2-4 min), 40% Buffer B (4-17 min), 100% Buffer B (17-19 min), 100% Buffer B (19-24 min), 0% Buffer B (24-25 min), and 0% Buffer B (25-30 min). Product formed was quantified using the ratio of substrate and product peak areas. After the detection, Km and kcat values were measured by GraphPad Prism software.

[2] = target: T2, ZDHHC7 (Homo sapiens, UniProt Q9NXF8); experiment: STAT3 fatty acylation induced by ZDHHC7 in HEK293T cells (Alk14 labeling, in-gel fluorescence); details: for STAT3 fatty acylation (ZDHHC7): 50 μM inhibitor, 6-hour treatment; for in-cell inhibition of ZDHHC7 (overall): HEK293T cells, summary statement; for STAT3 acylation (ZDHHC7): 12- and 24-hour inhibitor treatment
T2 sequence (Q9NXF8 1-308): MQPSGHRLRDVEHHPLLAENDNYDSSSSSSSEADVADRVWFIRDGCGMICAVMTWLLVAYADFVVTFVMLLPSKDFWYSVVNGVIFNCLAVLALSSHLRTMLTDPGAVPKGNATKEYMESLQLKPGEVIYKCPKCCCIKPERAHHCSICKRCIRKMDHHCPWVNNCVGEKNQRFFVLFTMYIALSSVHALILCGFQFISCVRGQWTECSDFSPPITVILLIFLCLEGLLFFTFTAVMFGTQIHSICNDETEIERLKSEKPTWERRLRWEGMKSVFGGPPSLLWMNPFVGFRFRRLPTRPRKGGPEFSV
Experimental: Cells were treated with 50 μM of the inhibitors for the indicated hours and labeled with 50 μM of Alk-14 for 6 hours. […] Cells were treated with 25 μM of inhibitors for 16 hours and labeled with 50 μM of Alk-14 for 6 hours. Relative FL/Protein for both experiments was calculated by dividing fluorescence signal by the protein level from the corresponding “CBB” lane. The fatty acylation level of DMSO with Alk14 was set to 1.
Flag-tagged STAT3 and HA-tagged ZDHHC7 were expressed in HEK293T cells. The cells were incubated with the four inhibitors. During the last six hours of the incubation, 50 μM of Alk14 probe was added to metabolically label palmitoylated STAT3. After collecting and lysing the cells, STAT3 was immunoprecipitated and the levels of acylation were determined by in-gel fluorescence after click chemistry.
HEK 293T cells were transfected with STAT3-Flag and ZDHHC3-HA or ZDHHC7-HA for 36 h, and treated with 50 μM 2-BP, MY-D-2, MY-D-3, or MY-D-4 for the indicated time with 6 h Alk14 labeling (50 μM). Cells were collected and lysed in the 1% NP-40 lysis buffer (25 mM Tris-HCl pH 8.0, 10% glycerol, 150 mM NaCl, 1% Nonidet P-40) with protease inhibitor cocktail (P8340, Sigma). STAT3-Flag was purified by anti-Flag agarose beads and resuspended in 50 μL IP wash buffer (25 mM Tris-HCl pH 8.0, 150 mM NaCl, 0.2% Nonidet P-40). Click chemistry was done by adding a mixture of 3 μL of 2 mM TAMRA azide (47130, Lumiprobe), 3.6 μL of 10 mM tris[(1-benzyl-1H-1,2,3-triazol-4-yl)methyl]amine (TBTA) (T2993, TCI chemicals), 3 μL of 40 mM CuSO4, 3 μL of 40 mM tris(2-carboxyethyl)phosphine HCl (TCEP hydrochloride) (580560, Millipore) to each sample. The mixtures were mixed by vortex and incubated in dark at room temperature for 30 min. 20 μL of the 6× loading buffer was added into each reaction mixture and the mixture was boiled at 95° C. for 10 min to denature. The mixture was separated by SDS-PAGE gel. The gel was scanned by the Typhoon 7000 Variable Mode Imager (GE Healthcare Life Sciences) in the rhodamine channel to visualize the fatty acylation of STAT3 and was stained with Coomassie Brilliant Blue (B7920, Sigma) to check for protein loading. Relative FL/Protein quantification was done by ImageJ.

[3] = target: T1, ZDHHC7; experiment: ZDHHC7-myrGia PAT assay with [3H]palmitoyl-CoA; assay type: biochemical; design: myc (vector pblueBac4.5-myc3His10) (C); His (vector pblueBac4.5-myc3His10) (C); made in house; host or cells: Sf9 insect cells (baculovirus); details: [3H]palmitoyl-CoA and myr-Gia substrate; 10 min pre-incubation at 30° C.
Experimental: To further evaluate the potency of the inhibitors, the four compounds were tested using ZDHHC7-catalyzed palmitoylation of myristoylated (myr) Gi protein a subunit (Gia) using an established in vitro assay with [^3H]palmitoyl-CoA. Myr-Gia was previously reported as a substrate for ZDHHC7 (R. Tsutsumi et al., Mol. Cell. Biol., 29, 435-447, 2009). ZDHHC7 and the inhibitors were pre-incubated at 30° C. for 10 min, followed by the addition of [^3H]pal-mitoyl-CoA and myr-Gia. The acylation reaction was allowed to proceed at 30° C. for 10 min, the reaction was quenched, and the proteins resolved by SDS-PAGE. The [^3H]-palmitoylated myrGia band was excised from the gel and the level of [^3H]palmitoylation was measured by scintillation counting. […] Additionally, MY-D-2 and MY-D-3 inhibited ZDHHC7 weaker than 2-BP.
(§1) Purification of ZDHHC enzymes.
ZDHHC7-myrGia PAT Assay. Rat Myr-Gia was generated by transforming C-terminally His-tagged Gia in JM101 competent cells containing the N-myristoyltransferase (NMT) plasmid. Following inoculation and induction of the bacterial cells, myr-Gia was purified from total cell lysates using Ni-NTA resin. […] The PAT reaction was then initiated by mixing the enzyme:inhibitor solution with [^3H]-palmitoyl CoA (1 μM) and myr-Gia (1 μM). The reaction was allowed to proceed for 10 min at 30° C. and then stopped with the addition of sample buffer containing 10 mM TCEP. Proteins were resolved on a Coomassie-stained gel, and the myr-Gia band was excised and dissolved in Soluene (Perkin-Elmer). The excised bands were heated at 37° C. overnight and then combined with Ultima Gold scintillation fluid (Perkin-Elmer). Radioactivity was measured by scintillation counting. IC50 values for the inhibitors were calculated by plotting the inhibition curves in GraphPad Prism.

[4] = target: T3, ZDHHC3 (Homo sapiens, UniProt Q9NYG2); experiment: STAT3 fatty acylation induced by ZDHHC3 in HEK293T cells (Alk14 labeling, in-gel fluorescence); assay type: cell-based; details: for effect on ZDHHC3-catalyzed STAT3 acylation level: 25 μM, 6-hour treatment
T3 construct: HA; expressed in transfected cells; host or cells: HEK 293T cells
T3 sequence (Q9NYG2 1-299): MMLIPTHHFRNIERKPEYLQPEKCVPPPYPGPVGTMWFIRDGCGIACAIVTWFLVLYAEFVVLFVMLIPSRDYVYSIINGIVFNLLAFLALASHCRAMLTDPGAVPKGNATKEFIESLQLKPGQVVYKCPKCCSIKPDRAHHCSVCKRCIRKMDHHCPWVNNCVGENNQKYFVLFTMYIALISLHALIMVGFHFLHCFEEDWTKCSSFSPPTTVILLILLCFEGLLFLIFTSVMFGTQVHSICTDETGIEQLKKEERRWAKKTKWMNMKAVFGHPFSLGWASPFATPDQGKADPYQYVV
Source text: Next experiments also tested the four compounds for ZDHHC3 inhibition in HEK293T cells that over-express both ZDHHC3 and STAT3. […] Thus, the results from the Acyl-cLIP assay can be used to predict cellular responses.

[5] = target: T4, ZDHHC3 (Mus musculus, UniProt Q8R173); experiment: ZDHHC3 Acyl-cLIP assay (end-point method); assay type: biochemical; details: for inhibition of ZDHHC3 compared with ZDHHC7 (Acyl-cLIP): comparison of Acyl-cLIP IC50 values
T4 construct: FLAG (C); His (C); made in house; host or cells: Sf9 insect cells (baculovirus)
T4 sequence (Q8R173 1-299): T3 sequence (Q9NYG2 1-299) with N11D, V25A, Y29F, V33A, T35A, I68V, V74A, G224A
Experimental: The DHHC3 IC50 value for 2-BP and MY-D-4 were approximately 250 and 50 μM, respectively (Table 1).
ZDHHC3 was assayed using the similar protocol at a final concentration of 0.6 μM.
The rest of the experiment was done identical to the ZDHHC7 assay.
as §1

[6] = target: T1, ZDHHC7; experiment: ZDHHC7 Acyl-cLIP assay (end-point method)
Experimental: Because these inhibitors may form irreversible covalent bonds with ZDHHCs, the order of adding the reagents were changed and included a 30-minute pre-incubation time to permit the bond to form prior to the addition of the FAM peptide and palmitoyl-CoA to initiate the reaction.
n-Dodecyl β-D-maltoside (DDM, 1.3 mg) was dissolved in 1 mL of water by vigorous vortexing. Preparing for 19 samples, “Buffer A” was prepared as follows: In a 1.5 mL Eppendorf tube with the DDM solution (190 μL), MES buffer pH 6.5 (stock concentration 500 mM, 38 μL), TCEP (stock concentration 30 mM, 6.33 μL), and ZDHHC7 (stock concentration 6 μM, 19 μL) were added. For the same 19 samples, “Buffer B” was prepared as followed. In a 1.5 mL Eppendorf tube with the DDM solution (76 μL), palmitoyl-CoA (stock concentration 1.5 mM, 12.6 μL) and FAM-Kras4a substrate (stock concentration 0.5 mM, 19 μL) was added. To each well of a black 384 well plate (Corning 3575), 1 μL of inhibitor (concentration ranging from 93.75 μM to 6000 μM) was added. First, 13.3 μL of “Buffer A” was added to each well. After a 30-minute pre-incubation, 5.66 μL of “Buffer B” was added. The final concentration of the reaction mixture was 50 mM MES pH 6.4, 0.5 mM TCEP, 40 μM palmitoyl-CoA, 0.3 μM ZDHHC7, and 25 μM FAM-KRas4a substrate in 0.1% DDM solution. After 30 minutes, the reaction was quenched by adding 4 μL of 6 mM non-FAM KRas-4a substrate. The fluorescence anisotropy was measured by citation 5 with “8040561 Filter BLK ASBY GRN FP VSBL K” cube at excitation of 485/20 nm, emission of 528/20 nm, and normal read speed mode. The measurements were done in 3 replicates at each inhibitor concentration.

[7] = target: T4, ZDHHC3; experiment: ZDHHC-HRas PAT assay, ZDHHC3; assay type: biochemical; details: fixed inhibitor concentration of 1 μM; order MY-D-4, 2-BP, MY-D-2, MY-D-3
Experimental: (§2) The results of the Acyl-cLIP assay were also compared with a conventional assay using HRas protein. Next experiments screened at a fixed inhibitor concentration of 1 μM against ZDHHC3 and ZDHHC7 using [^3H]palmitoyl-CoA and HRas protein as substrates. The levels of [^3H]palmitoylated HRas were detected.
as §1
(§3) ZDHHC-HRas PAT Assay. His-HRas was purified from total cell lysates of baculovirus-infected Sf9 cells using Ni-NTA resin.

[8] = target: T1, ZDHHC7; experiment: ZDHHC-HRas PAT assay, ZDHHC7; assay type: biochemical; design: myc (vector pblueBac4.5-myc3His10) (C); His (vector pblueBac4.5-myc3His10) (C); made in house; host or cells: Sf9 insect cells (baculovirus); details: fixed inhibitor concentration of 1 μM; order MY-D-4, 2-BP, MY-D-2, MY-D-3
Experimental: as §2, §1, §3

[9] = 30-minute pre-incubation, FAM-KRas4a peptide substrate
[10] = IC50 (μM) ZDHHC7 (Acyl-cLIP), 30-minute pre-incubation with inhibitor, FAM-KRas4a peptide substrate
[11] = IC50 ZDHHC7 (Acyl-cLIP) without the pre-incubation, without pre-incubation

STAT3 fatty acylation (ZDHHC7) ([2]; HEK293T) | in-cell inhibition of ZDHHC7 (overall) [2] | IC50 [3] [µM] | effect on ZDHHC3-catalyzed STAT3 acylation level [4] | IC50 (μM) ZDHHC3 (Acyl-cLIP) [5, 9] | IC50 [6, 10] [µM] | inhibition of ZDHHC7 (Acyl-cLIP) at highest concentration ([6]; at 150 μM) | IC50 [2] [µM] | inhibition of ZDHHC3 in living cells (FIG. 4B) ([4]; 25 μM of inhibitors for 16 hours) | IC50 [5] [µM] | IC50 [6, 11] [µM] | Compound | Km [1] [µM] | time-dependent inhibition of STAT3 acylation (ZDHHC7) ([2]; 25 μM inhibitor, HEK293T) | STAT3 acylation (ZDHHC7) ([2]; HEK293T) | IC50 [5, 9] [µM] | inhibition of ZDHHC3 compared with ZDHHC7 (Acyl-cLIP) [5] | IC50 ([6]; read-out: IC50 (μM) ZDHHC7 (Acyl-cLIP), 30-minute pre-incubation with inhibitor, FAM-KRas4a peptide substrate) [µM] | IC50 ([6]; read-out: IC50 ZDHHC7 (Acyl-cLIP) without the pre-incubation, without pre-incubation) [µM] | inhibition of ZDHHC3, levels of [3H]palmitoylated HRas [7] | inhibition of ZDHHC7, levels of [3H]palmitoylated HRas [8]
– | – | – | – | – | – | – | – | – | – | – | CC[C@H](C)[C@H](NC(=O)c1ccc2c(c1)C(=O)OC21c2ccc(O)cc2Oc2cc(O)ccc21)C(=O)N[C@@H](CO)C(=O)N[C@@H](CCCCN)C(=O)N[C@@H](CCC(=O)O)C(=O)N[C@@H](CCC(=O)O)C(=O)N[C@@H](CCCCN)C(=O)N[C@H](C(=O)N1CCC[C@H]1C(=O)NCC(=O)N[C@@H](CS)C(=O)N[C@H](C(=O)N[C@@H](CCCCN)C(=O)N[C@H](C(=O)N[C@@H](CCCCN)C(=O)N[C@@H](CCCCN)C(=O)O)[C@@H](C)CC)C(C)C)[C@@H](C)O [FAM-KRas4a peptide] (5FAM-ISKEEKTPGCVKIKK-OH) | 184 | – | – | – | – | – | – | – | –
had no effect | no inhibition | 78 | did not alter | No | > 150 | no inhibition | – | – | – | – | CCCCCCCCCCCCCCC(Br)C(=O)Nc1ccccc1 [MY-D-3, 2-bromo-N-phenylhexadecanamide] | – | – | – | – | – | – | – | – | –
only slightly decreased | only mild inhibition | 29 | only slightly affected | No | 38 | – | – | – | – | 75 | CCCCCCCCCCCCCCC(Br)C(=O)OC [MY-D-2, methyl 2-bromohexadecanoate] | – | – | – | – | – | – | – | – | –

Compound | STAT3 fatty acylation (ZDHHC7) ([2]; HEK293T) | in-cell inhibition of ZDHHC7 (overall) [2] | IC50 [3] [µM] | effect on ZDHHC3-catalyzed STAT3 acylation level [4] | IC50 (μM) ZDHHC3 (Acyl-cLIP) [5, 9] | IC50 [6, 10] [µM] | inhibition of ZDHHC7 (Acyl-cLIP) at highest concentration ([6]; at 150 μM) | IC50 [2] [µM] | inhibition of ZDHHC3 in living cells (FIG. 4B) ([4]; 25 μM of inhibitors for 16 hours) | IC50 [5] [µM] | IC50 [6, 11] [µM] | Km [1] [µM] | time-dependent inhibition of STAT3 acylation (ZDHHC7) ([2]; 25 μM inhibitor, HEK293T) | STAT3 acylation (ZDHHC7) ([2]; HEK293T) | IC50 [5, 9] [µM] | inhibition of ZDHHC3 compared with ZDHHC7 (Acyl-cLIP) [5] | IC50 ([6]; read-out: IC50 (μM) ZDHHC7 (Acyl-cLIP), 30-minute pre-incubation with inhibitor, FAM-KRas4a peptide substrate) [µM] | IC50 ([6]; read-out: IC50 ZDHHC7 (Acyl-cLIP) without the pre-incubation, without pre-incubation) [µM] | inhibition of ZDHHC3, levels of [3H]palmitoylated HRas [7] | inhibition of ZDHHC7, levels of [3H]palmitoylated HRas [8]
CCCCCCCCCCCCCCC(Br)C(=O)O (centres unmarked) [2-BP, 2-bromopalmitate, reference compound] | abolished | – | 16 | – | – | – | – | – | – | – | – | – | slightly more inhibitory effect than MY-D-4 | completely eliminated | > 250 | inhibited ZDHHC3 much less than ZDHHC7 | 9 | 12 | – | –
CCCCCCCCCCCCCCC(Br)C(=O)SCCNC(C)=O [MY-D-4, S-(2-acetamidoethyl) 2-bromohexadecanethioate] | significantly reduced | slightly weaker than or similar potency to 2-BP; also recorded: inhibits | 1.6 | – | – | 4.4 | – | 1 to 5 | inhibits | ~50 | 6.3 | – | – | completely eliminated | – | inhibited ZDHHC3 much less than ZDHHC7 | – | – | strongest inhibition among the four compounds | strongest inhibition among the four compounds
